Like-named read-outs stand apart in the source and are kept apart here.
What was measured:
Assay type in all cases: cell-based
[1] = molecular target: T1, OR5A2_variant 2 (Homo sapiens, UniProt Q8NGI9, P172L); assay: Luciferase reporter concentration-response analysis on haplotype OR5A2_variant 2 (P172L); conditions: CRE-luciferase; empty vector pEFIBRHO as control
T1 construct: (P172L, OR5A2_variant 2); expressed in transfected cells; host or cells: HEK293T-RTP1A1/RTP2
T1 sequence (Q8NGI9 1-324 P172L): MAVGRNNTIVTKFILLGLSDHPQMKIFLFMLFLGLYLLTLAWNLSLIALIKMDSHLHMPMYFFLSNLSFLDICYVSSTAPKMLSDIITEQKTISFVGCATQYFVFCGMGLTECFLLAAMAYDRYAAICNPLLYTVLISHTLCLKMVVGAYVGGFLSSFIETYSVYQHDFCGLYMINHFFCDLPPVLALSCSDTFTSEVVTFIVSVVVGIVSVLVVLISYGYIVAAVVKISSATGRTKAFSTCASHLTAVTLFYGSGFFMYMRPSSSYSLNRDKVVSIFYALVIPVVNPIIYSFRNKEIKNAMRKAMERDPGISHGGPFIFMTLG
Method: (§1) HEK293T-RTP1A1/RTP2 cells were maintained in minimal essential medium (EMEM, Lonza) containing 10% fetal bovine serum (M10). These cells were generated by transfecting HEK293T with an expression vector containing the sequences of the chaperone proteins RTP1A1 and RTP2 and a resistance gene to puromycin, using Lipofectamine 2000.
(§2) Odorant molecules were diluted at a concentration of 1 mole/liter (M) into dimethyl sulfoxide (DMSO) to generate stock solutions.
(§3) For concentration-response analysis, serial dilutions of the tested molecules were prepared from stock solutions in EMEM plated into 96-well plates.
(§4) For the initial deorphanisation screening and dose-response analysis, a Luciferase-based gene reporter assay (Promega, Leiden, The Nederlands) was used. Briefly, cells were platted on Poly-D-lysine-coated 96-well and transfected with a plasmid containing the CRE-luciferase and a plasmid containing the olfactory receptor. Sixteen hours after transfection, the culture medium was replaced by serum-free EMEM containing the tested compounds at a determined concentration. After four hours of incubation at 37° C. degree, cells were lysed and processed for luminescence measurement. Luminescene emission was recorded. Results were expressed as luciferase activity (Relative […] Unit (RLU)) or as percentage of the response induced by 10 μM of the adenylate cyclase activator Forskolin. An empty plasmid is used as negative control.
OR genes are highly variable, with many alleles resulting in differences in smell perception from person to person. These differences can be attributed to genetic variations like, for example, nucleotide polymorphisms. […] Amino acids alignment of the 2 haplotypes are represented in FIG. 4.
To test if the substitution could impact the musk sensitivity, luciferase assays were performed as described previously after transfection of both OR5A2 variants. Cells were treated with semi-logarithmic serial dilutions of musk compounds from the four structurally different groups described earlier. In each experiment, an empty vector was used as negative control (pEFIBRHO).

[2] = molecular target: T2, OR5AN1 (Homo sapiens, UniProt Q8NGI8, E89G); assay: Luciferase reporter concentration-response analysis on OR5AN1
T2 construct: expressed in transfected cells; host or cells: HEK293T-RTP1A1/RTP2
T2 sequence (Q8NGI8 1-311 E89G): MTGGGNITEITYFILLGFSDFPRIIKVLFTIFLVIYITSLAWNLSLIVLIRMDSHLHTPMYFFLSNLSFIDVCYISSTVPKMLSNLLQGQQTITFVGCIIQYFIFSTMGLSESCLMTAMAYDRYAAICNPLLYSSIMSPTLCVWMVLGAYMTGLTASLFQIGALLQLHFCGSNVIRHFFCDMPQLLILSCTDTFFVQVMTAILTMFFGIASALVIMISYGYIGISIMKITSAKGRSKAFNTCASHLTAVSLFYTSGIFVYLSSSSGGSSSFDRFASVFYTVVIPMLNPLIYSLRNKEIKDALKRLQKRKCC

[3] = molecular target: T3, OR2A5 (Homo sapiens, UniProt Q96R48, A202S/A255T/I126V); assay: Luciferase reporter concentration-response analysis on OR2A5; conditions: CRE-luciferase
T3 construct: expressed in transfected cells; host or cells: HEK293T-RTP1A1/RTP2
T3 sequence (Q96R48 1-311 I126V/A202S/A255T): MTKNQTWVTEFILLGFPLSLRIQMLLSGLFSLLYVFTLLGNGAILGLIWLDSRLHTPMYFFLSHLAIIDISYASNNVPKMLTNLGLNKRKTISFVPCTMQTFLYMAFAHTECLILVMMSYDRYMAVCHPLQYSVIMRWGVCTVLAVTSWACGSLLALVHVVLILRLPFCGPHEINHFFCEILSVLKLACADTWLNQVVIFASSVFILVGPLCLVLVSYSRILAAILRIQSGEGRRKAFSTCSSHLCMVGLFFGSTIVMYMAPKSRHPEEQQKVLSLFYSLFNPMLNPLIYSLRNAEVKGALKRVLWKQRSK
Method: as §1, with “2000. The recombinant cell population, used in these experiments, was selected by adding 10 μg/ml of puromycin into the culture medium and subsequently subcloned (WO 2014/191047 A1).” for “2000.”
as §2, §3, §4
In 1998, Krautwurst and collaborators have provided a model system for the study of ligand specificity and structure-function relationships for olfactory receptors (Krautwurst et al., 1998 Cell 95, 917-26). […] Based on their publication, a chimeric OR5A2_variant 1 olfactory receptor was created containing the TM2-TM7 amino acid sequence of OR5A2_variant 1 flanked by the N-teminal and C-terminal sequence of the olfactory receptor OR2A5 (cf. SEQ ID NO: 12). This chimeric OR5A2_variant 1 receptor shared 86 percent identity with the native OR5A2_variant 1 receptor (FIG. 6A and SEQ ID NO: 10).
To test if the amino acids substitution could impact the musk sensitivity, and specificity and to validate the Krautwurst's model, luciferase assays were performed as described previously after transfection of the chimeric OR5A2_variant 1. Cells were treated with semi-logarithmic serial dilutions of musk compounds from the four structurally different groups described earlier.

[4] = concentration-response analysis, luciferase reporter, values given as negative (log) numbers, Non Active = no activation after testing, read-out: calculated EC50, OR5AN1 (converted)

| SMILES | activation of OR5A2_variant 2 (P172L), concentration-response [1] | EC50 [2, 4] | activation of OR2A5, concentration-response [3] | EC50 [2] |
| --- | --- | --- | --- | --- |
| CC(=O)c1c(C)c([N+](=O)[O-])c(C(C)(C)C)c([N+](=O)[O-])c1C [Musk Ketone, 4-tert-butyl-2,6-dimethyl-3,5-dinitroacetophenone] | not activated | 288 nM | but not the OR2A5 | – |
| O=C1CCC/C=C\CCCCCCCCCC1 [Velvione] | not activated | 49000 nM | but not the OR2A5 | – |
| Cc1c([N+](=O)[O-])c(C)c([N+](=O)[O-])c(C(C)(C)C)c1[N+](=O)[O-] [Musk Xylene, 1-tert-butyl-3,5-dimethyl-2,4,6-trinitrobenzene] | not activated | – | but not the OR2A5 | 661 nM |

From patent US12461089B2, “Olfactory receptor involved in the perception of musk fragrance and the use thereof” (ChemoSensoryX Biosciences SA, priority 2017, dated 2025)
